Measured values as given in PubChem BioAssay AID1259407 (Chemical Carcinogenesis Research Information System (CCRIS), 2018).
Activity calls are given as the source filed them. No rule for the calls is given here.

Test system: CCRIS mutagenicity, Ames/micronucleus/aberration tests
Assay: CCRIS mutagenicity studies

Measured: mutagenic call

C=CCc1ccc2c(c1)OCO2
active: Test System: AMES SALMONELLA TYPHIMURIUM, Strain/Indicator: TA1535, Metabolic Activation: RAT, LIVER, S-9, AROCLOR 1254, PAPS, Method: STANDARD PLATE active; positive | Test System: CHINESE HAMSTER V-79, Strain/Indicator: V-79/6-THIOGUANINE, Metabolic Activation: NONE, Method: REPLATING active; positive | Test System: MOUSE LYMPHOMA, Strain/Indicator: L5178Y (TK+/+)/OUABAIN, Metabolic Activation: NONE, Method: SUSPENSION/PLATE active; positive | Test System: MOUSE LYMPHOMA, Strain/Indicator: L5178Y (TK+/+)/OUABAIN, Metabolic Activation: RAT LIVER S-9, AROCLOR 1254, Method: SUSPENSION/PLATE active; positive | Test System: MOUSE LYMPHOMA, Strain/Indicator: L5178Y (TK+/-)/TRIFLUROTHYMIDINE, Metabolic Activation: NONE, Method: SUSPENSION/PLATE active; positive | Test System: MOUSE LYMPHOMA, Strain/Indicator: L5178Y (TK+/TK-), Metabolic Activation: RAT, LIVER, S-9, Method: SUSPENSION/PLATE active; positive | Test System: UDS RAT HEPATOCYTES, Strain/Indicator: THY INCORP, Metabolic Activation: NONE, Method: LIQUID SCINTILLATION COUNTING active; positive
inactive: Test System: AMES SALMONELLA TYPHIMURIUM, Strain/Indicator: TA97, Metabolic Activation: HAMSTER LIVER S-9, AROCLOR 1254 (10%), Method: PREINCUBATION inactive; negative | Test System: AMES SALMONELLA TYPHIMURIUM, Strain/Indicator: TA97, Metabolic Activation: HAMSTER LIVER S-9, AROCLOR 1254 (30%), Method: PREINCUBATION inactive; negative | Test System: AMES SALMONELLA TYPHIMURIUM, Strain/Indicator: TA97, Metabolic Activation: NONE, Method: PREINCUBATION inactive; negative | Test System: AMES SALMONELLA TYPHIMURIUM, Strain/Indicator: TA97, Metabolic Activation: NONE, Method: STANDARD PLATE inactive; negative | Test System: AMES SALMONELLA TYPHIMURIUM, Strain/Indicator: TA97, Metabolic Activation: RAT LIVER S-9, AROCLOR 1254 (10%), Method: PREINCUBATION inactive; negative | Test System: AMES SALMONELLA TYPHIMURIUM, Strain/Indicator: TA97, Metabolic Activation: RAT LIVER S-9, AROCLOR 1254 (30%), Method: PREINCUBATION inactive; negative | Test System: AMES SALMONELLA TYPHIMURIUM, Strain/Indicator: TA97, Metabolic Activation: S-9, Method: STANDARD PLATE inactive; negative | Test System: AMES SALMONELLA TYPHIMURIUM, Strain/Indicator: TA98, Metabolic Activation: HAMSTER LIVER S-9, AROCLOR 1254 (10%), Method: PREINCUBATION inactive; negative | Test System: AMES SALMONELLA TYPHIMURIUM, Strain/Indicator: TA98, Metabolic Activation: HAMSTER LIVER S-9, AROCLOR 1254 (30%), Method: PREINCUBATION inactive; negative | Test System: AMES SALMONELLA TYPHIMURIUM, Strain/Indicator: TA98, Metabolic Activation: NONE, Method: PREINCUBATION inactive; negative | Test System: AMES SALMONELLA TYPHIMURIUM, Strain/Indicator: TA98, Metabolic Activation: NONE, Method: STANDARD PLATE inactive; negative | Test System: AMES SALMONELLA TYPHIMURIUM, Strain/Indicator: TA98, Metabolic Activation: RAT LIVER S-9, AROCLOR 1254 (10%), Method: PREINCUBATION inactive; negative | Test System: AMES SALMONELLA TYPHIMURIUM, Strain/Indicator: TA98, Metabolic Activation: RAT LIVER S-9, AROCLOR 1254 (30%), Method: PREINCUBATION inactive; negative | Test System: AMES SALMONELLA TYPHIMURIUM, Strain/Indicator: TA98, Metabolic Activation: RAT, LIVER, S-9, AROCLOR 1254, Method: STANDARD PLATE inactive; negative | Test System: AMES SALMONELLA TYPHIMURIUM, Strain/Indicator: TA98, Metabolic Activation: S-9, Method: STANDARD PLATE inactive; negative | Test System: AMES SALMONELLA TYPHIMURIUM, Strain/Indicator: TA100, Metabolic Activation: HAMSTER LIVER S-9, AROCLOR 1254 (10%), Method: PREINCUBATION inactive; negative | Test System: AMES SALMONELLA TYPHIMURIUM, Strain/Indicator: TA100, Metabolic Activation: HAMSTER LIVER S-9, AROCLOR 1254 (30%), Method: PREINCUBATION inactive; negative | Test System: AMES SALMONELLA TYPHIMURIUM, Strain/Indicator: TA100, Metabolic Activation: NONE, Method: PREINCUBATION inactive; negative | Test System: AMES SALMONELLA TYPHIMURIUM, Strain/Indicator: TA100, Metabolic Activation: NONE, Method: STANDARD PLATE inactive; negative | Test System: AMES SALMONELLA TYPHIMURIUM, Strain/Indicator: TA100, Metabolic Activation: RAT LIVER S-9, AROCLOR 1254 (10%), Method: PREINCUBATION inactive; negative | Test System: AMES SALMONELLA TYPHIMURIUM, Strain/Indicator: TA100, Metabolic Activation: RAT LIVER S-9, AROCLOR 1254 (30%), Method: PREINCUBATION inactive; negative | Test System: AMES SALMONELLA TYPHIMURIUM, Strain/Indicator: TA100, Metabolic Activation: RAT, LIVER, S-9, AROCLOR 1254, Method: STANDARD PLATE inactive; negative | Test System: AMES SALMONELLA TYPHIMURIUM, Strain/Indicator: TA100, Metabolic Activation: S-9, Method: STANDARD PLATE inactive; negative | Test System: AMES SALMONELLA TYPHIMURIUM, Strain/Indicator: TA102, Metabolic Activation: NONE, Method: STANDARD PLATE inactive; negative | Test System: AMES SALMONELLA TYPHIMURIUM, Strain/Indicator: TA102, Metabolic Activation: RAT LIVER S-9, PHENOBARBITAL AND 5,6-BENZOFLAVONE, Method: STANDARD PLATE inactive; negative | Test System: AMES SALMONELLA TYPHIMURIUM, Strain/Indicator: TA102, Metabolic Activation: S-9, Method: STANDARD PLATE inactive; negative | Test System: AMES SALMONELLA TYPHIMURIUM, Strain/Indicator: TA1535, Metabolic Activation: HAMSTER LIVER S-9, AROCLOR 1254 (10%), Method: PREINCUBATION inactive; negative | Test System: AMES SALMONELLA TYPHIMURIUM, Strain/Indicator: TA1535, Metabolic Activation: HAMSTER LIVER S-9, AROCLOR 1254 (30%), Method: PREINCUBATION inactive; negative | Test System: AMES SALMONELLA TYPHIMURIUM, Strain/Indicator: TA1535, Metabolic Activation: NONE, Method: PREINCUBATION inactive; negative | Test System: AMES SALMONELLA TYPHIMURIUM, Strain/Indicator: TA1535, Metabolic Activation: NONE, Method: STANDARD PLATE inactive; negative | Test System: AMES SALMONELLA TYPHIMURIUM, Strain/Indicator: TA1535, Metabolic Activation: PAPS, Method: STANDARD PLATE inactive; negative | Test System: AMES SALMONELLA TYPHIMURIUM, Strain/Indicator: TA1535, Metabolic Activation: RAT LIVER S-9, AROCLOR 1254 (10%), Method: PREINCUBATION inactive; negative | Test System: AMES SALMONELLA TYPHIMURIUM, Strain/Indicator: TA1535, Metabolic Activation: RAT LIVER S-9, AROCLOR 1254 (30%), Method: PREINCUBATION inactive; negative | Test System: AMES SALMONELLA TYPHIMURIUM, Strain/Indicator: TA1535, Metabolic Activation: RAT, LIVER, S-9, AROCLOR 1254, Method: STANDARD PLATE inactive; negative | Test System: AMES SALMONELLA TYPHIMURIUM, Strain/Indicator: TA1537, Metabolic Activation: NONE, Method: STANDARD PLATE inactive; negative | Test System: AMES SALMONELLA TYPHIMURIUM, Strain/Indicator: TA1537, Metabolic Activation: RAT, LIVER, S-9, AROCLOR 1254, Method: STANDARD PLATE inactive; negative | Test System: AMES SALMONELLA TYPHIMURIUM, Strain/Indicator: TA1538, Metabolic Activation: NONE, Method: STANDARD PLATE inactive; negative | Test System: AMES SALMONELLA TYPHIMURIUM, Strain/Indicator: TA1538, Metabolic Activation: RAT, LIVER, S-9, AROCLOR 1254, Method: STANDARD PLATE inactive; negative | Test System: AMES SALMONELLA TYPHIMURIUM, Strain/Indicator: TA2638, Metabolic Activation: RAT LIVER S-9, PHENOBARBITAL AND 5,6-BENZOFLAVONE, Method: STANDARD PLATE inactive; negative | Test System: CHINESE HAMSTER OVARY, Strain/Indicator: CHO/6-THIOGUANINE, Metabolic Activation: HAMSTER EMBRYO CELL-MEDIATED inactive; negative | Test System: CHINESE HAMSTER OVARY, Strain/Indicator: CHO/6-THIOGUANINE, Metabolic Activation: NONE inactive; negative | Test System: CHINESE HAMSTER OVARY, Strain/Indicator: CHO/OUABAIN, Metabolic Activation: HAMSTER EMBRYO CELL-MEDIATED inactive; negative | Test System: CHINESE HAMSTER OVARY, Strain/Indicator: CHO/OUABAIN, Metabolic Activation: NONE inactive; negative | Test System: CHINESE HAMSTER V-79, Strain/Indicator: V-79 (HGPRT)/6-THIOGUANINE, Metabolic Activation: NONE inactive; negative | Test System: CHINESE HAMSTER V-79, Strain/Indicator: V-79 (HGPRT)/6-THIOGUANINE, Metabolic Activation: RAT, LIVER, S-9, PHENOBARBITAL AND BETA-NAPHTHOFLAVONE inactive; negative | Test System: CHINESE HAMSTER V-79, Strain/Indicator: V-79/OUABAIN, Metabolic Activation: HAMSTER EMBRYO CELL-MEDIATED inactive; negative | Test System: CHINESE HAMSTER V-79, Strain/Indicator: V-79/OUABAIN, Metabolic Activation: NONE inactive; negative | Test System: CHINESE HAMSTER V-79, Strain/Indicator: V-79/OUABAIN, Metabolic Activation: RAT, LIVER, S-15, PHENOBARBITAL AND 5,6-BENZOFLAVONE inactive; negative | Test System: E. COLI, Strain/Indicator: WP2 (PKM101), Metabolic Activation: RAT LIVER S-9, PHENOBARBITAL AND 5,6-BENZOFLAVONE, Method: STANDARD PLATE inactive; negative | Test System: E. COLI, Strain/Indicator: WP2 UVRA (PKM101), Metabolic Activation: RAT LIVER S-9, PHENOBARBITAL AND 5,6-BENZOFLAVONE, Method: STANDARD PLATE inactive; negative | Test System: MOUSE LYMPHOMA, Strain/Indicator: L5178Y (TK+/-)/TRIFLUROTHYMIDINE, Metabolic Activation: RAT LIVER S-9, AROCLOR 1254, Method: SUSPENSION/PLATE inactive; negative | Test System: MOUSE LYMPHOMA, Strain/Indicator: L5178Y (TK+/TK-), Metabolic Activation: NONE, Method: SUSPENSION/PLATE inactive; negative
